Key:
[1] = tested on: ABUTH (Abutilon theophrasti); test: Postemergence herbicidal evaluation; format: in vivo, Medic.; details: postemergence
Outline: (§1)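 Seedlings grown about two weeks in flats, sprayed, then kept under standard greenhouse care. Rated visually 4–5 weeks after treatment on a 0–9 scale (stand, vigour, malformation, size, chlorosis, overall appearance) relative to untreated control; repeat tests averaged.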

[2] = tested on: CHEAL (Chenopodium album); test: Preemergence herbicidal evaluation; format: in vivo, L.; details: rated 4-5 weeks after treatment
Outline: (§2)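 Scores (0–9) reflect visual comparison with control plants for stand, vigor, malformation, size and chlorosis. Seeds in potting soil received a post-planting spray of compound in aqueous acetone and grew in a greenhouse until assessment 4–5 weeks later.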

[3] = tested on: AMBEL (Ambrosia artemisifolia); test: Preemergence herbicidal evaluation; format: in vivo, L.; details: rated 4-5 weeks after treatment
Outline: as §2

[4] = tested on: CASOB (Cassia obtusifolia); test: Preemergence herbicidal evaluation; format: in vivo, L.; details: rated 4-5 weeks after treatment
Outline: as §2

[5] = tested on: MOOVA (Monochoria vaginalis); test: Flooded paddy, preemergence weed control; format: in vivo, Presl.; details: rated 3-4 weeks after treatment, 0-9 rating scale
Outline: (§3)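 Visual 0–9 ratings versus controls scored stand, vigor, malformation, size, chlorosis and overall appearance. Plants grew from seeds or propagating organs sown 0.5 cm deep in silt loam, with water held 1.5–3 cm above the soil for the whole test under greenhouse care.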

[6] = tested on: IPOHE (Ipomoea hederacea); test: Postemergence herbicidal evaluation; format: in vivo, (L.) Jacq.; details: postemergence
Outline: as §1

ORYSAT (Rice, Tebonnet) [7] = test: Flooded paddy, post-transplant rice tolerance; format: in vivo, Oryza sativa, (L.) Tebonnet; details: flooded paddy, post-transplant rice, rated 3-4 weeks after treatment, 0-9 rating scale
Outline: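 Two ten-day-old seedlings were transplanted into silt loam, flooded and held at 1.5 to 3 cm water above the soil before herbicide treatment. Pots stayed in the greenhouse at that water level. Injury was scored visually on a 0-9 scale versus untreated control.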

GALAP (Galium aparine) = test: Postemergence herbicidal evaluation; format: in vivo; details: postemergence
Outline: as §1

ZEAMX (Corn, Field) = test: Postemergence herbicidal evaluation; format: in vivo, Zea mays, L.; details: postemergence
Outline: as §1

CYPIR (Cyperus iria) = test: Flooded paddy, preemergence weed control; format: in vivo; details: rated 3-4 weeks after treatment, 0-9 rating scale
Outline: as §3

SETVI (Setaria viridis) [8] = test: Postemergence herbicidal evaluation; format: in vivo, (L.) Beau; details: postemergence
Outline: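 Postemergence foliar spray on two-week-old seedlings, dose equivalent to about 0.0040 to 1.000 kg/ha. Ratings use a 0-9 visual scale relative to control at four to five weeks.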

[9] = tested on: SAGPY (Sagittaria pygmaea); test: Flooded paddy, preemergence weed control; format: in vivo, L.; details: rated 3-4 weeks after treatment, 0-9 rating scale
Outline: as §3

ORYSAT (Rice, Tebonnet) [10] = test: Preemergence herbicidal evaluation; format: in vivo, Oryza sativa, (L.) Tebonnet; details: rated 4-5 weeks after treatment
[11] = tested on: IPOHE (Ipomoea hederacea); test: Preemergence herbicidal evaluation; format: in vivo, (L.) Jacq.; details: rated 4-5 weeks after treatment
[12] = tested on: GLXMAW (Soybean, Williams); test: Postemergence herbicidal evaluation; format: in vivo, Glycine max, (L.) Merr. cv Williams; details: postemergence
Outline: as §1

[13] = tested on: ECHCG (Echinochloa crus-galli); test: Preemergence herbicidal evaluation; format: in vivo, (L.) Beau; details: rated 4-5 weeks after treatment
Outline: as §2

SETVI (Setaria viridis) [14] = test: Preemergence herbicidal evaluation; format: in vivo, (L.) Beau; details: rated 4-5 weeks after treatment
Outline: as §2

ORYSAT (Rice, Tebonnet) [15] = test: Postemergence herbicidal evaluation; format: in vivo, Oryza sativa, (L.) Tebonnet; details: postemergence
Outline: as §1

[16] = tested on: ECHORC (Echinochloa oryzoides); test: Flooded paddy, preemergence weed control; format: in vivo, Echinochloa oryzoides (Ard.) Fritsch.; details: rated 3-4 weeks after treatment, 0-9 rating scale
Outline: as §3

[17] = tested on: ECHCG (Echinochloa crus-galli); test: Postemergence herbicidal evaluation; format: in vivo, (L.) Beau; details: postemergence
Outline: as §1

Cn1c(C(F)(F)F)cc(=O)n(-c2ccc3snc(-c4ccco4)c3c2)c1=O [Compound 60, 3-[3-(2-furyl)-1,2-benzisothiazol-5-yl]-1-methyl-6-(trifluoromethyl)uracil]
ABUTH herbicidal rating ([1]; rate 0.0320 kg/ha): 9.0 | ABUTH herbicidal rating ([1]; rate 0.0620 kg/ha): 9.0 | Preemergence herbicidal rating CHEAL ([2]; Rate 0.0620 kg/ha): 7.0 | Preemergence herbicidal rating CHEAL ([2]; Rate 0.1250 kg/ha): 9.0 | Preemergence herbicidal rating CHEAL ([2]; Rate 0.2500 kg/ha): 9.0 | Preemergence herbicidal rating AMBEL ([3]; Rate 0.0620 kg/ha): 0.0 | Preemergence herbicidal rating AMBEL ([3]; Rate 0.1250 kg/ha): 5.0 | Preemergence herbicidal rating AMBEL ([3]; Rate 0.2500 kg/ha): 9.0 | Preemergence herbicidal rating CASOB ([4]; Rate 0.0620 kg/ha): 0.0 | Preemergence herbicidal rating CASOB ([4]; Rate 0.1250 kg/ha): 0.0 | Preemergence herbicidal rating CASOB ([4]; Rate 0.2500 kg/ha): 0.0 | herbicidal rating, MOOVA ([5]; rate 0.0080 kg/ha): 0.0 | herbicidal rating, MOOVA ([5]; rate 0.0320 kg/ha): 9.0 | herbicidal rating, MOOVA ([5]; rate 0.1250 kg/ha): 9.0 | IPOHE herbicidal rating ([6]; rate 0.0320 kg/ha): 9.0 | IPOHE herbicidal rating ([6]; rate 0.0620 kg/ha): 9.0 | herbicidal rating, ORYSAT (rice tolerance) (ORYSAT (Rice, Tebonnet) [7]; rate 0.0080 kg/ha): 0.0 | herbicidal rating, ORYSAT (rice tolerance) (ORYSAT (Rice, Tebonnet) [7]; rate 0.0320 kg/ha): 1.5 | herbicidal rating, ORYSAT (rice tolerance) (ORYSAT (Rice, Tebonnet) [7]; rate 0.1250 kg/ha): 2.5 | GALAP herbicidal rating (GALAP (Galium aparine); rate 0.0320 kg/ha): 7.0 | GALAP herbicidal rating (GALAP (Galium aparine); rate 0.0620 kg/ha): 9.0 | ZEAMX herbicidal rating (ZEAMX (Corn, Field); rate 0.0320 kg/ha): 5.5 | ZEAMX herbicidal rating (ZEAMX (Corn, Field); rate 0.0620 kg/ha): 6.0 | herbicidal rating, CYPIR (CYPIR (Cyperus iria); rate 0.0080 kg/ha): 0.0 | herbicidal rating, CYPIR (CYPIR (Cyperus iria); rate 0.0320 kg/ha): 6.0 | herbicidal rating, CYPIR (CYPIR (Cyperus iria); rate 0.1250 kg/ha): 7.0 | SETVI herbicidal rating (SETVI (Setaria viridis) [8]; rate 0.0320 kg/ha): 3.0 | SETVI herbicidal rating (SETVI (Setaria viridis) [8]; rate 0.0620 kg/ha): 2.0 | herbicidal rating, SAGPY ([9]; rate 0.0080 kg/ha): 0.0 | herbicidal rating, SAGPY ([9]; rate 0.0320 kg/ha): 0.0 | herbicidal rating, SAGPY ([9]; rate 0.1250 kg/ha): 2.5 | Preemergence herbicidal rating ORYSAT (ORYSAT (Rice, Tebonnet) [10]; Rate 0.0620 kg/ha): 1.0 | Preemergence herbicidal rating ORYSAT (ORYSAT (Rice, Tebonnet) [10]; Rate 0.1250 kg/ha): 4.0 | Preemergence herbicidal rating ORYSAT (ORYSAT (Rice, Tebonnet) [10]; Rate 0.2500 kg/ha): 6.0 | Preemergence herbicidal rating IPOHE ([11]; Rate 0.0620 kg/ha): 0.0 | Preemergence herbicidal rating IPOHE ([11]; Rate 0.1250 kg/ha): 0.0 | Preemergence herbicidal rating IPOHE ([11]; Rate 0.2500 kg/ha): 9.0 | GLXMAW herbicidal rating ([12]; rate 0.0320 kg/ha): 5.0 | GLXMAW herbicidal rating ([12]; rate 0.0620 kg/ha): 7.0 | Preemergence herbicidal rating ECHCG ([13]; Rate 0.0620 kg/ha): 1.0 | Preemergence herbicidal rating ECHCG ([13]; Rate 0.1250 kg/ha): 6.0 | Preemergence herbicidal rating ECHCG ([13]; Rate 0.2500 kg/ha): 7.0 | Preemergence herbicidal rating SETVI (SETVI (Setaria viridis) [14]; Rate 0.0620 kg/ha): 3.0 | Preemergence herbicidal rating SETVI (SETVI (Setaria viridis) [14]; Rate 0.1250 kg/ha): 7.0 | Preemergence herbicidal rating SETVI (SETVI (Setaria viridis) [14]; Rate 0.2500 kg/ha): 9.0 | ORYSAT herbicidal rating (ORYSAT (Rice, Tebonnet) [15]; rate 0.0320 kg/ha): 3.5 | ORYSAT herbicidal rating (ORYSAT (Rice, Tebonnet) [15]; rate 0.0620 kg/ha): 4.0 | herbicidal rating, ECHORC ([16]; rate 0.0080 kg/ha): 1.5 | herbicidal rating, ECHORC ([16]; rate 0.0320 kg/ha): 4.0 | herbicidal rating, ECHORC ([16]; rate 0.1250 kg/ha): 7.0 | ECHCG herbicidal rating ([17]; rate 0.0320 kg/ha): 2.0 | ECHCG herbicidal rating ([17]; rate 0.0620 kg/ha): 2.0

From US6706663B2, “Herbicidal 3-heterocyclic substituted benzisothiazole and benzisoxazole compounds” (Wyeth, priority 2000, dated 2004)
